Experimental findings from patent US4804749A, “20-O-Acyl-19,20-enolmacrolide antibiotic derivatives” (Toyo Jozo Co., Ltd., priority 1986, dated 1989) are described below.

≈ marks a conversion by molar mass, not a printed value.

Data set [1] can be described thus: Antibiotics levels in blood upon oral administration at 100 mg/kg to mice (by the paper disk method). The class given is in vivo. Conditions: mouse, ND: Below detectable limit; for Cmax: read-out: Antibiotics levels in blood upon oral administration: Peak value. As to the method:
(§1) Antibacterial activities of certain compounds (I) of this invention and corresponding 19-formylmacrolide antibiotics as well as their levels in blood and therapeutic effects for infectious diseases upon their oral administration are compared in Table 2.
Antibiotics levels in blood
upon oral administration at
100 mg/kg to mice (by the paper
disk method) (μg · h/ml)

A further data set relates to S. aureus, 209P. Briefly: MIC against S. aureus, 209P. The class given is cell-based. Conditions: Staphylococcus aureus.
Description: as §1
MIC (μg/ml): S. aureus, 209P

Data set [2] deals with S. pyogenes, S-23. The data set is described as follows: MIC against infective microorganism S. pyogenes, S-23. The class given is cell-based. Conditions: Streptococcus pyogenes, S23.
Description: as §1

Data set [3] deals with S. pyogenes, S-23. The data set is described as follows: Treatment results of infectious diseases of mice by oral administration. The class given is in vivo. Conditions: Streptococcus pyogenes, S23; mice infected with S. pyogenes S-23, oral administration.
Description: as §1
infectious diseases of mice

In the case of `CCC(=O)OC=CC1CC(C)C(=O)C=CC(C)=CC(COC2OC(C)CC(OC)C2OC)C(CC)OC(=O)CC(OC(=O)CC)C(C)C1OC1OC(C)C(O)C(N(C)C)C1O` (stereo not drawn) [Example 2b, 3,20-Di-O-propionyl-19, 20-enol-4"-deoxydesmycosin], in data set [1], the AUC (in general, concentration integrated over time) was 2.8 µg·h/mL and the Cmax worked out at 2.63 µg/mL. Also, it took 0.39 mg/L (≈ 0.449 µM) to inhibit growth in the data set with S. aureus, 209P (MIC).
`CCC(=O)OC1CC(=O)OC(CC)C(COC2OC(C)CC(OC)C2OC)C=C(C)C=CC(=O)C(C)CC(CC=O)C(OC2OC(C)C(O)C(N(C)C)C2O)C1C` (stereo not drawn) [Example 2a, 3O--Propionyl-4"-deoxydesmycosin, reference compound]: in data set [1], the AUC is 1.57 µg·h/mL and the Cmax came out at 0.42 µg/mL. In the data set on S. aureus, 209P, the minimal inhibitory concentration (MIC) – broadly, the least concentration at which growth counts as inhibited – was 0.2 mg/L (≈ 0.246 µM).
As to `CCC(=O)OC=CC1CC(C)C(=O)C=CC(C)=CC(COC(=O)N(C)C)C(CC)OC(=O)CC(OC(=O)CC)C(C)C1OC1OC(C)C(O)C(N(C)C)C1O` (stereo not drawn) [Ib, 3,20-Di-O-propionyl-19,20-enol-23-O-dimethylcarbamoyl-OMT], in data set [1], the exposure (AUC) is 6 µg·h/mL and the Cmax was 3 µg/mL. In the data set on S. pyogenes, S-23 [2], the MIC was found to be 0.78 mg/L (≈ 0.999 µM). In addition, the MIC against S. aureus, 209P was found to be 0.78 mg/L (≈ 0.999 µM). Also, in the data set on S. pyogenes, S-23 [3], the ED50 (in general, the dose that gives a 50% effect, or the effect in half of the subjects) was 100 to 200 mg/kg.
Turning to `CCC(=O)OC1CC(=O)OC(CC)C(COC(=O)N(C)C)C=C(C)C=CC(=O)C(C)CC(CC=O)C(OC2OC(C)C(O)C(N(C)C)C2O)C1C` (stereo not drawn) [Ia, 3O--Propionyl-23-O--dimethylcarbamoyl-OMT, reference compound], the MIC came to 0.1 mg/L (≈ 0.138 µM) in the data set on S. pyogenes, S-23 [2] and 0.2 mg/L (≈ 0.276 µM) in the data set with S. aureus, 209P. For the same molecule, the ED50 in the data set on S. pyogenes, S-23 [3] is over 400 mg/kg.
Turning to `CCC(=O)OC1CC(=O)OC(CC)C(COC2OC(C)C(O)C(OC)C2OC)C=C(C)C=CC(=O)C(C)CC(CC=O)C(OC2OC(C)CC(N(C)C)C2O)C1C` (stereo not drawn) [Example 3a, 3O--Propionyl-4'deoxydesmycosin, reference compound], in data set [1], the AUC is 1.79 µg·h/mL and the Cmax amounted to 0.43 µg/mL. The molecule also showed an MIC against S. pyogenes, S-23 [2] of 0.05 mg/L (≈ 0.0616 µM). Moreover, the lowest concentration to inhibit growth with S. aureus, 209P (MIC) was 0.2 mg/L (≈ 0.246 µM). The same molecule returned a median effective dose (ED50) in the data set on S. pyogenes, S-23 [3] of over 200 mg/kg.
With `CCC(=O)OC=CC1CC(C)C(=O)C=CC(C)=CC(COC2OC(C)C(O)C(OC)C2OC)C(CC)OC(=O)CC(OC(=O)CC)C(C)C1OC1OC(C)CC(N(C)C)C1O` (stereo not drawn) [Example 3b, 3,20-Di-O-propionyl-19,20-enol-4'-deoxydesmycosin], in data set [1], the exposure (AUC) was 4.9 µg·h/mL and the Cmax stood at 2.71 µg/mL. Further, in the data set on S. pyogenes, S-23 [2], the lowest concentration to inhibit growth (MIC) was 0.2 mg/L (≈ 0.23 µM). This molecule also yielded an MIC in the data set with S. aureus, 209P of 0.39 mg/L (≈ 0.449 µM). This molecule also came in with an ED50 with S. pyogenes, S-23 [3] of 59 mg/kg.
